The values that follow come from patent publication US9011880B2, “Compounds and methods for treating cancer” (IGF Oncology, LLC, priority 2003, dated 2015).

Where two headings read alike, the source gives them in different places.

The conditions of data set [1]: humans, cited from earlier work.
The next data set deals with FSAII tumors. Nature of the data set: FSAII tumor growth in vivo in mice. More on the design: species or system mouse. As to the method: FSAII testing. Six-week old female mice were injected subcutaneously in the thigh with 200,000 FSAII cells each in serum-free medium. Tumors were allowed to grow until they reached an average volume of 100 mm^3 (calculated as length×breadth^2). At that time, treatment was initiated. […] A fifth group of mice was untreated controls. Each group contained five mice. Mice were treated on days 0, 2, and 5. Tumor growth was measured every second day.

In another data set the test system is LNCAP tumors. The format is in vivo, mouse. As to the method:
LNCAP testing. Eight-week old athymic male mice (nu/nu) were injected subcutaneously in the thigh with 1 million LNCAP cells in serum-free medium. Tumors were allowed to grow until they reached an average size of 100 mm^3. […] A fifth group of mice was untreated controls.

The test system of data set [2] is SCK (mouse mammary carcinoma). Nature of the data set: Cell proliferation response to insulin and IGF-1: SCK. Particulars: minimal medium, 1 ug/ml insulin or 100 ng/ml IGF-1, 1, 2 and 4 days, data not shown. The format is cell-based. As to the method: (§1) The cell lines LNCAP, MCF-7, MDA-231, SCK, and HOP-92 were also tested to determine whether the cells increased their proliferation in the presence of insulin or IGF-1. Cells were plated in minimal medium with no addition (negative control), 1 ug/ml insulin, 100 ng/ml IGF-1, or 10% fetal calf serum (positive control), and cell density was monitored at 1, 2, and 4 days after plating. […] (Data not shown).

In data set [3] the test system is LNCAP (human prostate carcinoma). Nature of the data set: Cell proliferation response to insulin and IGF-1: LNCAP. The format is cell-based. Particulars: minimal medium, 1 ug/ml insulin or 100 ng/ml IGF-1, 1, 2 and 4 days, data not shown. As to the method: as §1
Data set [4] has as its system MDA-231 (human breast carcinoma). Nature of the data set: Cell proliferation response to insulin and IGF-1: MDA-231. The format is cell-based. Particulars: MDA-231, minimal medium, 1 ug/ml insulin or 100 ng/ml IGF-1, 1, 2 and 4 days; data not shown. As to the method: as §1
Data set [5] deals with MCF-7 (human breast carcinoma). Nature of the data set: Cell proliferation response to insulin and IGF-1: MCF-7. It is filed as cell-based. The settings on record: MCF-7, minimal medium, 1 ug/ml insulin or 100 ng/ml IGF-1, 1, 2 and 4 days; data not shown. As to the method: as §1
Another data set relates to type 1 IGF receptor. Particulars: cited from earlier work.
Where [6] appears, read: high dose 60 μmoles/kg methotrexate, intraperitoneally, days 0, 2 and 5.
Setting [7] is: low dose conjugate vs high dose methotrexate.

Consider `COc1cccc2c1C(=O)c1c(O)c3c(c(O)c1C2=O)C[C@@](O)(C(=O)CO)C[C@@H]3O[C@H]1C[C@H](N)[C@H](O)[C@H](C)O1` [doxorubicin], for which the maximum safe dosage entry in data set [1] (cumulative per 3 weeks) is listed as “approximately 130 micromoles per meter squared per 3 weeks”. Also, the minimum effective dosage is ~100 micromoles per meter squared per 3 weeks in data set [1] (lowest dosage usually used) and “about 60 mg/m^2” in data set [1] (per 3 weeks).
Regarding `CC[C@]1(O)C[C@H]2CN(CCc3c([nH]c4ccccc34)[C@@](C(=O)OC)(c3cc4c(cc3OC)N(C=O)[C@H]3[C@@](O)(C(=O)OC)[C@H](OC(C)=O)[C@]5(CC)C=CCN6CC[C@]43[C@@H]65)C2)C1` [vincristine], the maximum safe dosage result in data set [1] (cumulative per 3 weeks) is listed as “about 8 micromoles per meter squared per 3 weeks”. The minimum effective dosage entry in data set [1] (lowest dosage usually used) is listed as “about 3.25 micromoles per meter squared per 3 weeks”.
For “insulin-methotrexate conjugate: approximately 3 MTX attached to each insulin by direct amide bonds to the two alpha amino groups and one lysine side chain”, in the data set on FSAII tumors (setting [6]), the “effect on FSAII tumor growth” value is listed as “appeared to very significantly slow tumor growth” and the “toxicity (death of mice)” value is listed as “killed all five mice by one day following the third treatment”. For the same compound, in the data set on FSAII tumors (low dose 15 μmoles/kg methotrexate, intraperitoneally, days 0, 2 and 5), the “effect on FSAII tumor growth” value is given as “significantly slowed tumor growth”. In addition, in the data set on FSAII tumors (setting [7]), the “activity against FSAII tumors in vivo relative to unconjugated methotrexate” value was “at least 4 fold”. Moreover, the “effect on LNCAP tumor growth” value in the data set with LNCAP tumors (low dose 15 μmoles/kg methotrexate, days 0, 4, 8, 18, 22 and 26) is “appeared to slow tumor growth”. In addition, the “lower concentration at which effective against LNCAP tumors relative to unconjugated methotrexate” value in the data set on LNCAP tumors (setting [7]) was “at least 2.6 times”.
On to “IGF-1: human insulin-like growth factor-1, SEQ ID NO:1”, for which the stimulation of proliferation entry in data set [2], in data set [3], in data set [4] and in data set [5] was “stimulated proliferation” throughout.
For the compound `CC(=O)O[C@@]12CO[C@@H]1C[C@H](O)[C@@]1(C)C(=O)[C@H](O)C3=C(C)[C@@H](OC(=O)[C@H](O)[C@@H](NC(=O)OC(C)(C)C)c4ccccc4)C[C@@](O)([C@@H](OC(=O)c4ccccc4)[C@H]21)C3(C)C` [docetaxel], in data set [1] (cumulative per 3 weeks), the maximum safe dosage result is on record as “about 120 micromoles per meter squared per 3 weeks”. Also, the minimum effective dosage result in data set [1] (lowest dosage usually used) is “about 70 micromoles per meter squared per 3 weeks”.
Regarding “long-R3-IGF-1: variant of IGF-1, SEQ ID NO:4, reduced binding affinity for soluble IGF binding proteins (GroPep)”, the “binding affinity for the type 1 IGF receptor compared to wild-type IGF-1” value in the data set with type 1 IGF receptor was “equal binding affinity”.
Regarding insulin: insulin, the stimulation of proliferation entry in data set [2], in data set [3], in data set [4] and in data set [5] was “stimulated proliferation” in each case.
With `O=P1(N(CCCl)CCCl)NCCCO1` (stereo not drawn) [cyclophosphamide], in data set [1], the maximum safe dosage entry is recorded as “approximately 5 millimoles per meter squared per 3 weeks” and the minimum effective dosage entry was “approximately 3 millimoles per meter squared per 3 weeks”.
